From patent US20050119253A1, “Method of treating mental disorders using of D4 and 5-HT2A antagonists, inverse agonists or partial agonists” (priority 2003, published 2005)

Tests used:
Format in all cases: binding
D1 = D1 (Homo sapiens, UniProt P21728); test: pKi of test compounds, D1 receptor
D2 = D2 (Homo sapiens, UniProt P14416); test: pKi of test compounds, D2 receptor; details: read-out: pKi D2 (converted)
D3 = D3 (Homo sapiens, UniProt P35462); test: pKi of test compounds, D3 receptor; details: for Ki: read-out: pKi D3 (converted)
5HT1A = molecular target: T1, 5HT1A (Homo sapiens, UniProt P08908); test: pKi of test compounds, 5HT1A receptor
T1 sequence (P08908 1-422): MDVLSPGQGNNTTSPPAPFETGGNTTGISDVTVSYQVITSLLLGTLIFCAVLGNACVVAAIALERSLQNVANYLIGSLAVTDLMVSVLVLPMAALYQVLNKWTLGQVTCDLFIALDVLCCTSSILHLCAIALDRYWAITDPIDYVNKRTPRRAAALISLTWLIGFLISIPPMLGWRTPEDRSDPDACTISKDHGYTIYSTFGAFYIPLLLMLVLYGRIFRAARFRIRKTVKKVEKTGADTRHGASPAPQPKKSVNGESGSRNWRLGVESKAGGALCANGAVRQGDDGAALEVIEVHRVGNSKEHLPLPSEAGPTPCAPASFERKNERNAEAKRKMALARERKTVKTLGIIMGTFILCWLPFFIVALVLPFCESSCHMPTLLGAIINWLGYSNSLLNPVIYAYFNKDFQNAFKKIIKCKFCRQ

5-HT2A receptor = 5-HT2A receptor (Homo sapiens, UniProt P28223); test: pKi of test compounds, 5-HT2A receptor
5HT2C = molecular target: T2, 5HT2C (Homo sapiens, UniProt P28335); test: pKi of test compounds, 5HT2C receptor
T2 sequence (P28335 33-458): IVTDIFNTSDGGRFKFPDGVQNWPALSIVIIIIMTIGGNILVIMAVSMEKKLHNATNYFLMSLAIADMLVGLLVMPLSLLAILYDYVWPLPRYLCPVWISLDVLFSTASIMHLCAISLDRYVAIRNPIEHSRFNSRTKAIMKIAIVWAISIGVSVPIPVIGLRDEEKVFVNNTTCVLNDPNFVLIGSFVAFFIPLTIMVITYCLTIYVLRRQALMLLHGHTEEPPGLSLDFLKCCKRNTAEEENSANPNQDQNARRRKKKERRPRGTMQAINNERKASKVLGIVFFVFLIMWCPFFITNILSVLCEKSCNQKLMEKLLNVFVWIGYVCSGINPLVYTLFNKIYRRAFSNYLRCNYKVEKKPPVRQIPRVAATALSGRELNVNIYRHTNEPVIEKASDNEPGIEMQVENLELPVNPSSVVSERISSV

Alpha1A = molecular target: T3, Alpha1A (Homo sapiens, UniProt P35348); test: pKi of test compounds, adrenergic receptor Alpha1A
T3 sequence (P35348 1-466): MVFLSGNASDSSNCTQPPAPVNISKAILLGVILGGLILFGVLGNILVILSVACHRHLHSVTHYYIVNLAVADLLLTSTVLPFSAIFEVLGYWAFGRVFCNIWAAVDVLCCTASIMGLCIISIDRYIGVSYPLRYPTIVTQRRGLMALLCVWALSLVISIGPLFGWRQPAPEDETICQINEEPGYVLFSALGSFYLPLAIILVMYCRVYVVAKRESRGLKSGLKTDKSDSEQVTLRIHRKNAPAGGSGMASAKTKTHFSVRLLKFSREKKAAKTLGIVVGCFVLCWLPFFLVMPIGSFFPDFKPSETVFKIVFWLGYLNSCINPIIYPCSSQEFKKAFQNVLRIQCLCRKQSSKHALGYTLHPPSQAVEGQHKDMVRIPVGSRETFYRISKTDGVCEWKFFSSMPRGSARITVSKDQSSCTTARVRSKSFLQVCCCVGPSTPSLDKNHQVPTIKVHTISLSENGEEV

Alpha2A = molecular target: T4, Alpha2A (Homo sapiens, UniProt P08913); test: pKi of test compounds, adrenergic receptor Alpha2A
T4 sequence (P08913 1-465): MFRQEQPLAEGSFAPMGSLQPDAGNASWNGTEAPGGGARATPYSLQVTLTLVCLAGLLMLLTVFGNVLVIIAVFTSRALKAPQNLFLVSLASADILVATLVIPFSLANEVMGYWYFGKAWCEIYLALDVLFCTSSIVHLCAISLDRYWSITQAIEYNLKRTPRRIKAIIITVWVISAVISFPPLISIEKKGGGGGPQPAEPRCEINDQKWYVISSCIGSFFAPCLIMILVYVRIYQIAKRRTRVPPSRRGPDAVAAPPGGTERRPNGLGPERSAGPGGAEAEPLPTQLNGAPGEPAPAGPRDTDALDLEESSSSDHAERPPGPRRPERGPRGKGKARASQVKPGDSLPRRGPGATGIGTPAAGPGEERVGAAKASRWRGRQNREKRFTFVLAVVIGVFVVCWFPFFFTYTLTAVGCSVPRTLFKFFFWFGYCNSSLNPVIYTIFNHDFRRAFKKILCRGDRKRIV

5HT1F = 5HT1F (Homo sapiens, UniProt P30939); test: pKi of test compounds, 5HT1F receptor
Alpha2B = Alpha2B (Homo sapiens, UniProt P18089); test: pKi of test compounds, adrenergic receptor Alpha2B
Alpha2C = molecular target: T5, Alpha2C (Homo sapiens, UniProt P18825); test: pKi of test compounds, adrenergic receptor Alpha2C
T5 sequence (P18825 1-462): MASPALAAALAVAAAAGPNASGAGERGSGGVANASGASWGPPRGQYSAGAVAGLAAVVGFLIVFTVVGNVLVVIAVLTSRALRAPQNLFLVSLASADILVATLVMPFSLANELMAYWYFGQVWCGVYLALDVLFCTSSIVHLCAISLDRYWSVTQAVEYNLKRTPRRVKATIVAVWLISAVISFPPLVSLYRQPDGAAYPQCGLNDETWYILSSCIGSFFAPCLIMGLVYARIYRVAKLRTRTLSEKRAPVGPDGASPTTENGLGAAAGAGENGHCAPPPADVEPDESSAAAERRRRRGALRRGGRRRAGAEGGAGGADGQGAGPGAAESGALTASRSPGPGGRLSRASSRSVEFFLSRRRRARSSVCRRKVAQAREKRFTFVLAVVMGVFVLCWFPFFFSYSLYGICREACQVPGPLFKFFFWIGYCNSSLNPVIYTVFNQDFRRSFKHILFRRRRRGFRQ

D4 receptor = molecular target: T6, D4 receptor (Homo sapiens, UniProt P21917); test: pKi of test compounds, D4 receptor; details: D4; read-out: pKi D4 (converted)
T6 sequence (P21917 1-419): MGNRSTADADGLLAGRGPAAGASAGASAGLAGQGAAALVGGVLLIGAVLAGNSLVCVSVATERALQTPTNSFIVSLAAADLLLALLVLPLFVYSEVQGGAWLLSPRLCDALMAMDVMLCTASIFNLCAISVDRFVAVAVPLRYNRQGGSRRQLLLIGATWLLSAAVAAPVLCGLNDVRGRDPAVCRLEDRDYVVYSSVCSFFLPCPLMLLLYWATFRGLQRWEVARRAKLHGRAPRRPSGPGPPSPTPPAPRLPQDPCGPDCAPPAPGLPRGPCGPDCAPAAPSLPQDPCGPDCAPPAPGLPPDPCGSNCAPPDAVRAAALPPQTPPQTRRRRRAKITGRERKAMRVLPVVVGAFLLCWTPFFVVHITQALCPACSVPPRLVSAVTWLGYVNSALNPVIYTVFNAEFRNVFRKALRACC

5HT1B = 5HT1B (Homo sapiens, UniProt P28222); test: pKi of test compounds, 5HT1B receptor
5HT1D = 5HT1D (Homo sapiens, UniProt P28221); test: pKi of test compounds, 5HT1D receptor; details: for Ki: read-out: pKi 5HT1D (converted)
5HT1E = 5HT1E (Homo sapiens, UniProt P28566); test: pKi of test compounds, 5HT1E receptor
5HT2B = 5HT2B (Homo sapiens, UniProt P41595); test: pKi of test compounds, 5HT2B receptor
5HT6rat = 5HT6rat (Rattus norvegicus, UniProt P31388); test: pKi of test compounds, 5HT6 receptor; details: rat; read-out: pKi 5HT6rat (converted)
5HT7rat = 5HT7rat (Rattus norvegicus, UniProt P32305); test: pKi of test compounds, 5HT7 receptor
Beta1 = Beta1 (Homo sapiens, UniProt P08588); test: pKi of test compounds, adrenergic receptor Beta1
Beta2 = Beta2 (Homo sapiens, UniProt P07550); test: pKi of test compounds, adrenergic receptor Beta2
Sequence of Beta2 (P07550 whole entry): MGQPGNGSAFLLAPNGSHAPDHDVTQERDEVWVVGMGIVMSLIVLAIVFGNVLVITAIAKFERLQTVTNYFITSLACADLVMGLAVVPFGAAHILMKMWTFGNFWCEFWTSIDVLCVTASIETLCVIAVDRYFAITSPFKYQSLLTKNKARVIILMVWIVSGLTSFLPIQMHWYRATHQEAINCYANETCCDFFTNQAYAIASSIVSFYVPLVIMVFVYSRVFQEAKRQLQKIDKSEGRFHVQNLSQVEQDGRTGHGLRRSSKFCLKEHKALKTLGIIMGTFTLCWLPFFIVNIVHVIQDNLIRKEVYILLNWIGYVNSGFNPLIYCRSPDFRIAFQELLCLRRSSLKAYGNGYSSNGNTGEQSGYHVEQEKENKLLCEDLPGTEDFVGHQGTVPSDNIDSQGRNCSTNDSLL

Sequence of D1 (P21728 whole entry): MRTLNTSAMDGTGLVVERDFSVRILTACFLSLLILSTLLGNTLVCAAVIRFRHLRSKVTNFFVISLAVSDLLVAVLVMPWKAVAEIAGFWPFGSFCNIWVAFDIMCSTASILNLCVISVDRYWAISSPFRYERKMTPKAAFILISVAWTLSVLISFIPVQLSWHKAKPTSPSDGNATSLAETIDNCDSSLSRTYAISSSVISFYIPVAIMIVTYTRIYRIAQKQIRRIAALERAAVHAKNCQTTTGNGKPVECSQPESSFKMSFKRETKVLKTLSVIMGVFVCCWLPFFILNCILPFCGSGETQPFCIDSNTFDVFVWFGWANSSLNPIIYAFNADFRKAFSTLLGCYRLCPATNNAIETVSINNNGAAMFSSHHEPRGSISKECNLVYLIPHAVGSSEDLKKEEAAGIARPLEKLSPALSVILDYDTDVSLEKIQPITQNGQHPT
Sequence of D3 (P35462 whole entry): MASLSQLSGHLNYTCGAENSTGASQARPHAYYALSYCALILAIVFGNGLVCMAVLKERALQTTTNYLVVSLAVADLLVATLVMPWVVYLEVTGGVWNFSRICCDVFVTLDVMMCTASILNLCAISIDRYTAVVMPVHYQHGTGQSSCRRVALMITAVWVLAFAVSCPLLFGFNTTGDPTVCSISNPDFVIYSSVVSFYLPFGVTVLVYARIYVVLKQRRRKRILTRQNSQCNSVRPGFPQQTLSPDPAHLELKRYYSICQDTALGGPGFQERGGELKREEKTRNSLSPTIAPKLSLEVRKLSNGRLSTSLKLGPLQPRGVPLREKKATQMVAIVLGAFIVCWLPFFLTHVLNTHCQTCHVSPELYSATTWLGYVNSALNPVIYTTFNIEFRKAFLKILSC
Sequence of 5HT1B (P28222 whole entry, species assumed): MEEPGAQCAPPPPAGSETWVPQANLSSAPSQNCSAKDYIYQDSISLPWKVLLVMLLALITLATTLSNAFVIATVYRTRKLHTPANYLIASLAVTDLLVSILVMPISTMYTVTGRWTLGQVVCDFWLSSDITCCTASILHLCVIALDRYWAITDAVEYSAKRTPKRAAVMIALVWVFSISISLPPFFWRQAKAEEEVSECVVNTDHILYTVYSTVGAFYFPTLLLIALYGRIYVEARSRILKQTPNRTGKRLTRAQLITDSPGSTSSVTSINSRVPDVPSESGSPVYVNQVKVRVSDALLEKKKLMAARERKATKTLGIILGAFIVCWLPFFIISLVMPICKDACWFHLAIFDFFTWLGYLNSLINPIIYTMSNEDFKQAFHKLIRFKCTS
Sequence of 5-HT2A receptor (P28223 whole entry): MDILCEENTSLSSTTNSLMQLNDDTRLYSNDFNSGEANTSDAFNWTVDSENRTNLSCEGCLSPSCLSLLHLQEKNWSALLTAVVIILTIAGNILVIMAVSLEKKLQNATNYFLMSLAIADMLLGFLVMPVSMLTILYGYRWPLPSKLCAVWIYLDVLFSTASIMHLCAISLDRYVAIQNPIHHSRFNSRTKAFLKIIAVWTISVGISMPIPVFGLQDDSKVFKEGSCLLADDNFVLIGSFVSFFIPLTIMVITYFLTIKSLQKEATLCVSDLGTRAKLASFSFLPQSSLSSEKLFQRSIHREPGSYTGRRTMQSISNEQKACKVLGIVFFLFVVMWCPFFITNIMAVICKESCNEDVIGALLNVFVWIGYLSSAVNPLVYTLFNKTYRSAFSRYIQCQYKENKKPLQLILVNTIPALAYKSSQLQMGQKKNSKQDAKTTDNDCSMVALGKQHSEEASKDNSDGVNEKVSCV
Sequence of 5HT1D (P28221 whole entry, species assumed): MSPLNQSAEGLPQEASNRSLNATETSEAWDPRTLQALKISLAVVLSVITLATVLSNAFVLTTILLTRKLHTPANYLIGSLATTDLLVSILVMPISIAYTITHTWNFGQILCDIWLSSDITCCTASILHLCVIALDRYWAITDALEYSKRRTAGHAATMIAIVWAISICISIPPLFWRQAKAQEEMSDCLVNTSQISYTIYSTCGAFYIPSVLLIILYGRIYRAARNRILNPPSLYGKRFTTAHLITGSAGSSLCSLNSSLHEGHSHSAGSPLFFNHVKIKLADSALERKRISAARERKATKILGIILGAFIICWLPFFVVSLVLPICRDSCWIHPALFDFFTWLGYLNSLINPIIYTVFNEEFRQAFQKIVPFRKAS
Sequence of D2 (P14416 whole entry): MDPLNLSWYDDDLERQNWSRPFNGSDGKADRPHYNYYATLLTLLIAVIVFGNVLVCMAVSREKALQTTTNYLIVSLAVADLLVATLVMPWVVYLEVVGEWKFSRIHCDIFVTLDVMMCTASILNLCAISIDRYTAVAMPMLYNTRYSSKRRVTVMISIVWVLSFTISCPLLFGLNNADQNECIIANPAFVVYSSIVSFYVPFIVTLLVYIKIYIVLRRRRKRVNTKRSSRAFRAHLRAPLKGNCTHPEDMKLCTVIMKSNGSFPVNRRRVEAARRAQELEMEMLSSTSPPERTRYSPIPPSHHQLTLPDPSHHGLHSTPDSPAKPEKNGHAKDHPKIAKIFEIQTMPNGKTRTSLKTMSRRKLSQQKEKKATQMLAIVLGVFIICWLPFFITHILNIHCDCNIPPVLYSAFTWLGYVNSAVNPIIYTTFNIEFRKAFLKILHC
Sequence of 5HT1E (P28566 whole entry, species assumed): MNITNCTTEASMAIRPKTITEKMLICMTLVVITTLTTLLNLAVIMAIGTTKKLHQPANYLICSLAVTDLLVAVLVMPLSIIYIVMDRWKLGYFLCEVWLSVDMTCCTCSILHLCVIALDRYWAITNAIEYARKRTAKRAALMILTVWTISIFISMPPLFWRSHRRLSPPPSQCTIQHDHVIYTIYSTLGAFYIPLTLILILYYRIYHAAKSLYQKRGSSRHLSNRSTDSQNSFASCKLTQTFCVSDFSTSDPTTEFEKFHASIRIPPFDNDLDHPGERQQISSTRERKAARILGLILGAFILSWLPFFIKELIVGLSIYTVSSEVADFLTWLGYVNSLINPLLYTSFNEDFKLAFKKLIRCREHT
Sequence of 5HT1F (P30939 whole entry, species assumed): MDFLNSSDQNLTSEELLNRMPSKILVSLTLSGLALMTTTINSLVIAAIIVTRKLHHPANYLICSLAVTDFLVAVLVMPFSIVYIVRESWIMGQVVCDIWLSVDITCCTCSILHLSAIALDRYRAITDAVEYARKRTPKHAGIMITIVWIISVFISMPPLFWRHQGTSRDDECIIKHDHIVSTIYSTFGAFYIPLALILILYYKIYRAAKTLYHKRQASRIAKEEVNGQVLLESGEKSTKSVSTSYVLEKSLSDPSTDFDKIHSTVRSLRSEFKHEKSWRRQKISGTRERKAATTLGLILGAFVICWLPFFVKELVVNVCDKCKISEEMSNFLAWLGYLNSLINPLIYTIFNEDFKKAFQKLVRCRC
Sequence of 5HT2B (P41595 whole entry, species assumed): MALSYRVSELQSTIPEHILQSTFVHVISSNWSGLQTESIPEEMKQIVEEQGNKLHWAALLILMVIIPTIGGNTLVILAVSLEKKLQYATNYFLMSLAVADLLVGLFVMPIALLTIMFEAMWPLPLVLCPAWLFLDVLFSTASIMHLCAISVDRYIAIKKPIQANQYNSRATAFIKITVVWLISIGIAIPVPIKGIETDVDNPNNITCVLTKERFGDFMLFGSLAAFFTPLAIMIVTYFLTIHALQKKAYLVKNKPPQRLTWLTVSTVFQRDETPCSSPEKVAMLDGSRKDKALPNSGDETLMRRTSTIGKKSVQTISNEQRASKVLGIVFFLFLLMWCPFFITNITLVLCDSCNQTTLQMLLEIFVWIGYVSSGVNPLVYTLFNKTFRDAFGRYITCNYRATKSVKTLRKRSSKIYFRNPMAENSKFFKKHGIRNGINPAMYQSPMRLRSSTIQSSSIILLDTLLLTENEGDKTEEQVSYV
Sequence of Beta1 (P08588 whole entry): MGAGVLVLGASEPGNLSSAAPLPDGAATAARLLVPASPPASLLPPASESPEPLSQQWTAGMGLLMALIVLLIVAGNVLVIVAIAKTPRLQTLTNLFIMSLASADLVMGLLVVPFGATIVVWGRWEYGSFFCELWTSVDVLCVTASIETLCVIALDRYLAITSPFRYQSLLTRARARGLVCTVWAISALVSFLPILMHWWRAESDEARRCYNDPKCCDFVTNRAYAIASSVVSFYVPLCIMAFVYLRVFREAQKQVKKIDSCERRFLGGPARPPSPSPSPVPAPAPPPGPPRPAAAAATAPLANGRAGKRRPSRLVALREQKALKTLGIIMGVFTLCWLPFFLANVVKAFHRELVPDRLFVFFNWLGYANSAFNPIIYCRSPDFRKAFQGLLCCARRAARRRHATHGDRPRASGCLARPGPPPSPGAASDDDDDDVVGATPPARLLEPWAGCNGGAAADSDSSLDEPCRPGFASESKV

With `CCNC(=O)N1CCN(CCCC(c2ccc(F)cc2)c2ccc(F)cc2)CC1` [Amperozide] as the compound, how does the Ki (D1) read?
Its Ki is 100 to 1000 nM.

And the Ki (D2)?
The Ki was 100 to 1000 nM.

What about the Ki (D3) of the same compound?
Its Ki is 100 to 1000 nM.

And the Ki (5HT1A)?
The Ki was > 1000 nM.

And the Ki (5-HT2A receptor)?
Its Ki is 1 to 10 nM.

What about the Ki (5HT2C) of the same compound?
Its Ki is > 1000 nM.

What about the Ki (Alpha1A) of the same compound?
Its Ki is 10 to 100 nM.

What about the Ki (Alpha2A) of the same compound?
Its Ki is > 1000 nM.

`CN1CCN(C2=Nc3cc(Cl)ccc3Nc3ccccc32)CC1` [Clozapine] was tested. Which Ki (5HT1F) did it give?
Its Ki is 100 to 1000 nM.

For `Fc1cccc2c1O[C@H]1CNC[C@@H]1O2` [Fluparoxan], which Ki (5HT1A) is on record?
The Ki was 100 to 1000 nM.

What about the Ki (Alpha1A) of the same compound?
The Ki was 100 to 1000 nM.

What about the Ki (Alpha2A) of the same compound?
The Ki was 1 to 10 nM.

What about the Ki (Alpha2B) of the same compound?
The Ki was 1 to 10 nM.

What about the Ki (Alpha2C) of the same compound?
Its Ki is 1 to 10 nM.

How did the Ki (D2) turn out when `O=C1NCN(c2ccccc2)C12CCN(CCCC(c1ccc(F)cc1)c1ccc(F)cc1)CC2` [Fluspirilene] was run?
Its Ki is < 1 nM.

And the Ki (D4 receptor)?
The Ki was 1 to 10 nM.

What about the Ki (5HT1B) of the same compound?
Its Ki is > 1000 nM.

What about the Ki (5HT1D) of the same compound?
Its Ki is > 1000 nM.

What about the Ki (5HT1E) of the same compound?
Its Ki is > 1000 nM.

Which “pKi D3” value (D3) does the source give for `OC1(c2ccc(Cl)cc2)CCN(Cc2c[nH]c3ccccc23)CC1` [L741626] here?
Its value is 7-8.

And the “pKi 5HT1B” value (5HT1B)?
Its value is <6.

And the “pKi 5HT1D” value (5HT1D)?
The value was <6.

What about the “pKi 5HT2B” value (5HT2B) of the same compound?
Its value is 6-7.

And the “pKi Alpha2A” value (Alpha2A)?
The value was <6.

With `CN1CC2c3ccccc3Oc3ccc(Cl)cc3C2C1` (stereo not drawn) [ORG5222] as the compound, how does the Ki (D1) read?
The Ki was 1 to 10 nM.

And the Ki (D3)?
The Ki was 1 to 10 nM.

And the Ki (D4 receptor)?
Its Ki is 1 to 10 nM.

And the Ki (5HT1A)?
Its Ki is 1 to 10 nM.

What about the Ki (5HT1B) of the same compound?
The Ki was 1 to 10 nM.

And the Ki (5HT1D)?
Its Ki is 1 to 10 nM.

And the Ki (5HT1E)?
The Ki was 10 to 100 nM.

And the Ki (5-HT2A receptor)?
Its Ki is < 1 nM.

What about the Ki (5HT2C) of the same compound?
Its Ki is < 1 nM.

What about the Ki (5HT6rat) of the same compound?
Its Ki is < 1 nM.

What about the Ki (5HT7rat) of the same compound?
The Ki was < 1 nM.

And the Ki (Alpha1A)?
The Ki was < 1 nM.

And the Ki (Alpha2A)?
The Ki was 1 to 10 nM.

And the Ki (Alpha2C)?
The Ki was 10 to 100 nM.

What about the Ki (Beta1) of the same compound?
Its Ki is > 1000 nM.

And the Ki (Beta2)?
The Ki was > 1000 nM.

`Cc1nc2c(C)cccn2c(=O)c1CCN1CCC(c2noc3cc(F)ccc23)CC1` [Ocaperidone] was tested. Which Ki (D1) did it give?
The Ki was 10 to 100 nM.

What about the Ki (D2) of the same compound?
Its Ki is < 1 nM.

And the Ki (D3)?
The Ki was 1 to 10 nM.

And the Ki (D4 receptor)?
Its Ki is 1 to 10 nM.

And the Ki (5HT1A)?
Its Ki is 10 to 100 nM.

And the Ki (5-HT2A receptor)?
The Ki was < 1 nM.

And the Ki (5HT2C)?
Its Ki is 10 to 100 nM.

What about the Ki (Alpha1A) of the same compound?
The Ki was < 1 nM.

What does the source list for `CCN1CCC[C@H]1CNC(=O)c1c(O)c(Cl)cc(Cl)c1OC` [Raciopride]?
Ki (D1): > 1000 nM; Ki (D3): 1 to 10 nM; Ki (5HT1A): > 1000 nM; Ki (5HT2C): > 1000 nM; Ki (Alpha1A): > 1000 nM; Ki (Alpha2A): > 1000 nM
